{"source": "BindingDB's records for doi:10.7270/Q29G5KF0", "about": "(The Scripps Research Institute Molecular Screening Center, 2013)"}
{"biological_target": "Kallikrein-7 (Homo sapiens, UniProt P49862)", "sequence (P49862 whole entry)": "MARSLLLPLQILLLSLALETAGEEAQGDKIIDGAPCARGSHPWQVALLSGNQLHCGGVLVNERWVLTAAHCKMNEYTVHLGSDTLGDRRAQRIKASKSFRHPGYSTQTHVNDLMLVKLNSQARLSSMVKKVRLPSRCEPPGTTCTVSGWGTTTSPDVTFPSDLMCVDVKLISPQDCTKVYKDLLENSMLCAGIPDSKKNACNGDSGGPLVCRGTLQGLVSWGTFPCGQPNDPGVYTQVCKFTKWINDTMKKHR", "units": {"EC50": "µM"}}
{"molecule": "CC1=NC2=C(C(=O)CC(C)(C)C2)C(c2cccnc2)C1C#N", "note": "(stereo not given) [2,7,7-trimethyl-5-oxo-4-pyridin-3-yl-1,4,6,8-tetrahydroquinoline-3-carbonitrile]", "EC50": "> 69.5"}
{"molecule": "COCCN1Cc2cc(=O)n3c(nc4ccccc43)c2=C1N", "note": "[SMR000369291]", "EC50": "> 69.5"}
{"molecule": "COc1ccccc1C1CC(c2ccc(C)cc2)=Nc2nnnn21", "note": "(stereo not given)", "EC50": 23.5}
{"molecule": "C=CCOC(=O)C1=C(C)N=C(SCC(=O)NC(=O)OCC)C(C#N)C1c1cccnc1", "note": "(stereo not given) [prop-2-enyl 5-cyano-6-[2-(ethoxycarbonylamino)-2-oxidanylidene-ethyl]sulfanyl-2-methyl-4-pyridin-3-yl-1,4-dihydropyridine-3-carboxylate]", "EC50": 4.56}
{"molecule": "COc1ccc(C2C(C(=O)N3CCOCC3)=C(C)N=C3CC(C)(C)CC(=O)C32)c(OC)c1", "note": "(stereo not given) [MLS000076547]", "EC50": 52.4}
{"molecule": "COC(=O)CC1=C(C(=O)OC)C(c2ccccc2[N+](=O)[O-])C(C#N)C(=N)O1", "note": "[methyl (4S)-6-amino-5-cyano-2-(2-methoxy-2-oxoethyl)-4-(2-nitrophenyl)-4H-pyran-3-carboxylate]", "EC50": 8.2}
{"molecule": "COC(=O)c1[nH]n(-c2ccccc2)c2c(O)n(-c3ccccc3OC)c(=O)c1-2", "note": "[methyl 5-(2-methoxyphenyl)-4,6-bis(oxidanylidene)-1-phenyl-3a,6a-dihydropyrrolo[3,4-c]pyrazole-3-carboxylate]", "EC50": "> 69.5"}
{"molecule": "COC(=O)c1ccc(C2C3=C(CC(C)(C)CC3=O)N=C(C)C2C#N)cc1", "note": "(stereo not given) [methyl 4-(3-cyano-2,7,7-trimethyl-5-oxo-1,4,6,8-tetrahydroquinolin-4-yl)benzoate]", "EC50": 20.8}
{"molecule": "COC(=O)C1=CN=CC(C(=O)OC)C1c1ccc(C(=O)OC)cc1", "note": "(stereo not given) [MLS000111732]", "EC50": "> 69.5"}
{"molecule": "COc1ccccc1C1CC(c2ccccc2)=Nc2nnnn21", "note": "(stereo not given) [SMR000107979]", "EC50": 12.1}
